Data on two compounds can be found in ChEMBL document CHEMBL1126778, “Adenosine A1 antagonists. 3. Structure-activity relationships on amelioration against scopolamine- or N6-((R)-phenylisopropyl)adenosine-induced cognitive disturbance” (J Med Chem, 1993).

Several values for one entry are separate records, joined by “and”; a condition that tells them apart may be missing. Equal entries are not always repeated.

Assay [1] addresses T1, Adenosine receptor A1 (Cavia porcellus, UniProt P47745).
T1 sequence (P47745 whole entry): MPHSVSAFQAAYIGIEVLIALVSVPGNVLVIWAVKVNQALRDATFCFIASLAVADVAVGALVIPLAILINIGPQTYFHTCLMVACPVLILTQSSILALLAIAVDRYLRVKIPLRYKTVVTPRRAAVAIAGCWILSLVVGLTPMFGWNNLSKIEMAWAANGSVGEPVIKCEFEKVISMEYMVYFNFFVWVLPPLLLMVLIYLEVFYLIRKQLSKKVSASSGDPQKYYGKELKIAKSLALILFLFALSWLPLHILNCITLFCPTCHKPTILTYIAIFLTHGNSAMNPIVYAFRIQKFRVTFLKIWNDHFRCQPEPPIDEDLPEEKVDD
Nature of the assay: Binding affinity against Adenosine A1 receptor from guinea pig forebrain membranes by N6-[3H]- cyclohexyladenosine displacement.

Assay [2] concerns the target Adenosine receptor A1, Rattus norvegicus (UniProt P25099). Nature of the assay: Binding affinity against Adenosine A1 receptor from rat forebrain membranes with N6-[3H]- cyclohexyladenosine.
The target in assay [3] is Adenosine A2 receptor (Homo sapiens, UniProt P29275+P29274). The experiment in a line: Binding affinity against Adenosine A2 receptor from human platelets with [125I]-N6-aminobenzyladenosine.
The target in assay [4] is Adenosine A2 receptor (Rattus norvegicus, UniProt P29276+P30543). The experiment in a line: Binding affinity at Adenosine A2 receptor from rat striatal membranes by N-[3H] ethyladenosin-5'- uronamide displacement.
Assay [5] deals with Mus musculus. The experiment in a line: Acquisition time in (R)-PIA) induced avoidance test (performed in mice) for antagonistic activity after peroral administration of 0.08 mg/kg. It is filed as functional. Conditions: route oral.
For assay [6], the system named is Mus musculus. The experiment in a line: Acquisition time in (R)-PIA) induced avoidance test (performed in mice) for antagonistic activity after p.o. administration of 1.25 mg/kg. It is filed as functional. Conditions: route oral, 1.25 mg/kg.
Assay [7] relates to Mus musculus. The experiment in a line: Acquisition time in (R)-PIA) induced avoidance test (performed in mice) for antagonistic activity after peroral administration of 20 mg/kg (n=15). It is filed as functional. Conditions: route oral.
Assay [8] concerns Mus musculus. The experiment in a line: Retention time in (R)-PIA) induced avoidance test (performed in mice) for antagonistic activity after p.o. administration of 1.25 mg/kg. It is filed as functional, organism-based. More on the design: dose 1.25 mg/kg.
Assay [9] has as its system Mus musculus. Nature of the assay: Retention time in (R)-PIA) induced avoidance test (performed in mice) for antagonistic activity after peroral administration of 20 mg/kg (n=15) (P<0.005). It is filed as functional, organism-based. More on the design: dose 20 mg/kg.
Assay [10] relates to Mus musculus. The experiment in a line: Retention time in (R)-PIA) induced avoidance test (performed in mice) for antagonistic activity after peroral administration of 0.31 mg/kg. It is filed as functional, organism-based. More on the design: dose 0.31 mg/kg.
Assay [11] concerns Mus musculus. Nature of the assay: Tested for locomotor activity after oral administration of 10 mg/kg for 120 min. It is filed as functional.
Assay [12] relates to Mus musculus. The experiment in a line: Tested for locomotor activity after oral administration of […] for 120 min. It is filed as functional.
Assay [13] has as its system Mus musculus. Nature of the assay: Tested for locomotor activity after oral administration of 40 mg/kg for 120 min. It is filed as functional.
For assay [14], the system named is Rattus norvegicus. The experiment in a line: Acquisition time in Scopolamine induced avoidance test (performed in rat) for antagonistic activity after peroral administration of 1.25 mg/kg (n=12). It is filed as functional. Conditions: route oral.
Assay [15] has as its system Rattus norvegicus. The experiment in a line: Acquisition time in Scopolamine induced avoidance test (performed in rat) for antagonistic activity after peroral administration of 0.02 mg/kg. The note with it: route oral. It is filed as functional.
Assay [16] has as its system Rattus norvegicus. The experiment in a line: Acquisition time in Scopolamine induced avoidance test (performed in rat) for antagonistic activity after p.o. administration of 0.08 mg/kg. It is filed as functional. The note with it: route oral.
Assay [17] relates to Rattus norvegicus. The experiment in a line: Acquisition time in Scopolamine induced avoidance test (performed in rat) for antagonistic activity after p.o. administration of 0.31 mg/kg. It is filed as functional. Conditions: route oral.
The subject of assay [18] is Rattus norvegicus. The experiment in a line: Acquisition time in Scopolamine induced avoidance test (performed in rat) for antagonistic activity after p.o. administration of 5 mg/kg. It is filed as functional. Conditions: route oral.
Assay [19] deals with Rattus norvegicus. Nature of the assay: Retention time in Scopolamine induced avoidance test (performed in […]) for antagonistic activity after peroral administration of 1.25 mg/kg (n=12) (P<0.01). It is filed as functional, organism-based. More on the design: dose 1.25 mg/kg.
The subject of assay [20] is Rattus norvegicus. The experiment in a line: Retention time in Scopolamine induced avoidance test (performed in rat) for antagonistic activity after peroral administration of 0.02 mg/kg. It is filed as functional, organism-based. More on the design: dose 0.02 mg/kg.
Assay [21] relates to Rattus norvegicus. The experiment in a line: Retention time in Scopolamine induced avoidance test (performed in rat) for antagonistic activity after p.o. administration of 0.08 mg/kg. It is filed as functional, organism-based. More on the design: dose 0.08 mg/kg.
Assay [22] relates to Rattus norvegicus. The experiment in a line: Retention time in Scopolamine induced avoidance test (performed in rat) for antagonistic activity after p.o. administration of 0.31 mg/kg. It is filed as functional, organism-based. More on the design: dose 0.31 mg/kg.
Assay [23] relates to Rattus norvegicus. The experiment in a line: Retention time in Scopolamine induced avoidance test (performed in rat) for antagonistic activity after peroral administration of 5 mg/kg. It is filed as functional, organism-based. Further details: dose 5 mg/kg.

Adenosine receptor A1, Rattus norvegicus, sequence (P25099 whole entry, looked up): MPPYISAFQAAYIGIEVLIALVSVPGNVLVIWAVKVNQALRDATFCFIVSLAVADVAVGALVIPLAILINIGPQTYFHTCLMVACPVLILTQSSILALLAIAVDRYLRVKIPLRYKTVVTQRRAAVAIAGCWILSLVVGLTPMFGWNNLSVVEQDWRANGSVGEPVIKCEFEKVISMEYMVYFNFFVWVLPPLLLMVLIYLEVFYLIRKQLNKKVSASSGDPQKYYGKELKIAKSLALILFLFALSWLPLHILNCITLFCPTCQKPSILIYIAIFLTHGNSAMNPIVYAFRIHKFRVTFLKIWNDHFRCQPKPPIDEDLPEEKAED

What is called Ki is a measure of affinity in units of concentration, obtained from inhibition or displacement. A high value points to a looser hold on the target. In the case of `CCCn1c(=O)c2[nH]c(C3CCCC3)nc2n(CCc2ccc(N)cc2)c1=O`, the Ki was determined as 5.6 nM in assay [1] and 0.23 nM in assay [2].

Regarding `CCCn1c(=O)c2nc(C3CCCC3)[nH]c2n(CCc2ccc(N)cc2)c1=O`, the Ki in [3] came out at 2000 nM; in [4] it was 430 nM. Further, the Acquisition time in assay [5] was 21.2 s; in [6] it was 28.7 s and 23.1 s; in [7], 23.5 s; in assay [14], 18.3 s; in assay [15], 25.7 s; in [16], 20.8 s. The Acquisition time in assay [17] is 11.1 s; in [18], 12.3 s. Also, the Retention time in assay [8] was 152 s and 177 s; in assay [9], 318 s; in assay [10], 113 s; in [19] it was 384 s; in assay [20], 151 s; in [21], 160 s. Moreover, the Retention time in assay [22] and in [23] was 255 s each time. Besides, the Locomotor activity in assay [11] was determined as 6693 Counts; in [12], 6224 Counts; in assay [13], 5867 Counts.
